US20230078764A1 (Yumanity Therapeutics, Inc., priority 2019, published 2023)
Like-named read-outs stand apart in the source and are kept apart here.

Assays:
human SCD1 = biological target: T1, human SCD1 (Homo sapiens, UniProt O00767); assay: Growth inhibition of yeast strain expressing human SCD1 as sole desaturase (OLE1 deleted), OD600 readout; type: cell-based
T1 construct: expressed in transfected cells; host or cells: yeast strain with OLE1 deleted, plasmid-borne human SCD1 (selected in SD-Ura)
T1 sequence (O00767 1-359): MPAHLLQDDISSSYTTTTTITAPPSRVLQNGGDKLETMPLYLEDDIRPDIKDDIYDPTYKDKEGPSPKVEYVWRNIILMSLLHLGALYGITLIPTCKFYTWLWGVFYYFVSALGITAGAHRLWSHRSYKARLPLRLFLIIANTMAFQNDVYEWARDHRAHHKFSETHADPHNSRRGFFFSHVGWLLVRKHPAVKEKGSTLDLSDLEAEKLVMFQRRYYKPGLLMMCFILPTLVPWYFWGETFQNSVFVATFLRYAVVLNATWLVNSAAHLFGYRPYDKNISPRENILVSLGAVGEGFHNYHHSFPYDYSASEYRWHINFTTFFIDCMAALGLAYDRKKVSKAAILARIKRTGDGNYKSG

human SCD5 = biological target: T2, human SCD5 (Homo sapiens, UniProt Q86SK9); assay: Growth inhibition of yeast strain expressing human SCD5 as sole desaturase (OLE1 deleted), OD600 readout; type: cell-based
T2 construct: expressed in transfected cells; host or cells: yeast strain with OLE1 deleted, plasmid-borne human SCD5 (selected in SD-Ura)
T2 sequence (Q86SK9 1-330): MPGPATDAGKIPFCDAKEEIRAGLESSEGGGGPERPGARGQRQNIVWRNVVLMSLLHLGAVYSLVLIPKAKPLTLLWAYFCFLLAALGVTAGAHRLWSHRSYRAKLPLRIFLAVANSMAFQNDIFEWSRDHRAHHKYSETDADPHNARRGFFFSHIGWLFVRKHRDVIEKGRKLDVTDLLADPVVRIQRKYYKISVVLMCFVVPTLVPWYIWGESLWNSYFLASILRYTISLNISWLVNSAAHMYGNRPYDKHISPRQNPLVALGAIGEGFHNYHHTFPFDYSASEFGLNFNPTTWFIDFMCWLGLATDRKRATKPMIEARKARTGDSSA

[1] = yeast strain expressing human SCD1 as sole desaturase, growth (OD600) after 40 h at 30° C., read-out: SCD1 IC50
[2] = yeast strain expressing human SCD5 as sole desaturase, growth (OD600) after 40 h at 30° C., read-out: SCD5 IC50

IC50 (human SCD1; [1]) | IC50 (human SCD5; [2]) | Structure (SMILES) | IC50 (human SCD1; SCD1 IC50) | IC50 (human SCD5; SCD5 IC50)
2740 nM | 80 nM | CN1N=C(C(=O)Nc2ccc(Cc3ccc(Cl)c(F)c3)cn2)CCC1=O [Compound 11, N-(5-(4-chloro-3-fluorobenzyl)pyridin-2-yl)-1-methyl-6-oxo-1,4,5,6-tetrahydropyridazine-3-carboxamide] |  | 
> 45000 nM | > 45000 nM | Cc1cncc(Cc2ccc(NC(=O)C3=NN(C)C(=O)CC3)nc2)c1 [Compound 437] |  | 
 |  | Cn1cc(C(=O)Nc2ccc(Cc3ccc(C(F)(F)F)cc3)cn2)ccc1=O [Compound 63, 1-methyl-6-oxo-N-(5-(4-(trifluoromethyl)benzyl)pyridin-2-yl)-1,6-dihydropyridine-3-carboxamide] | 380 nM | 320 nM
15400 nM | 690 nM | Cn1ccc(C(=O)Nc2ccc(Cc3cccc(F)c3)cn2)nc1=O [Compound 335] |  | 
> 45000 nM | 2100 nM | O=C(Nc1ccc(Cc2cccc(Cl)c2)cn1)c1nnc(C(F)(F)F)o1 [Compound 681] |  | 
10 nM | 10 nM | O=C(Nc1ccc(Cc2cccc(Cl)c2)cn1)c1cnc(CO)c(F)c1 [Compound 290] |  | 
24700 nM | 7800 nM | O=C(Nc1ccc(Cc2cccc(Cl)c2)cn1)c1ccc2nccn2c1 [Compound 155, N-(5-(3-chlorobenzyl)pyridin-2-yl)imidazo[1,2-a]pyridine-6-carboxamide] |  | 
> 45000 nM | 1070 nM | CN1N=C(C(=O)Nc2ccc(OCc3cccc(Cl)c3)cn2)CCC1=O [Compound 170, N-(5-(3-chlorobenzyloxy)pyridin-2-yl)-1-methyl-6-oxo-1,4,5,6-tetrahydropyridazine-3-carboxamide] |  | 
 |  | Cn1cc(C(=O)Nc2ccc(Cc3cc(F)cc(F)c3)cn2)ccc1=O [Compound 59, N-(5-(3,5-difluorobenzyl)pyridin-2-yl)-1-methyl-6-oxo-1,6-dihydropyridine-3-carboxamide] | 310 nM | 10 nM
3120 nM | 220 nM | COc1cc(C(=O)Nc2ccc(Cc3cccc(F)c3)cn2)nn(C)c1=O [Compound 127, N-(5-(3-fluorobenzyl)pyridin-2-yl)-5-methoxy-1-methyl-6-oxo-1,6-dihydropyridazine-3-carboxamide] |  | 
> 45000 nM | > 45000 nM | O=C(Nc1ccc(Cc2cccc(Cl)c2)cn1)c1ccc2nccn2n1 [Compound 415] |  | 
> 45000 nM | 2520 nM | CN1N=C(C(=O)Nc2ccc(/C=C/c3cccc(Cl)c3)nn2)CCC1=O [Compound 288] |  | 
12000 nM | 680 nM | COCc1ncc(C(=O)Nc2ccc(Cc3cccc(Cl)c3)cn2)cn1 [Compound 479] |  | 
860 nM | 140 nM | O=C(Nc1ccc(Cc2cccc(F)c2)cn1)c1ccc(=O)n(C(F)F)c1 [Compound 287] |  | 
10000 nM | 430 nM | COC(=O)c1ccnc(C(=O)Nc2ccc(Cc3cccc(F)c3)cn2)c1 [Compound 570] |  | 
2300 nM | 150 nM | Cn1cc(C(=O)Nc2ccc(Oc3cc(F)cc(Cl)c3)cn2)ccc1=O [Compound 589] |  | 
740 nM | 10 nM | O=C(Nc1ccc(Cc2cccc(F)c2)cn1)c1cc2ncncc2s1 [Compound 555] |  | 
> 45000 nM | > 45000 nM | CN1N=C(C(=O)NCc2ccc(Cc3cccc(F)c3)cn2)CCC1=O [Compound 381] |  | 
> 45000 nM | 1320 nM | N#Cc1ccc(C(=O)Nc2ccc(CC3CCCCC3)cn2)cn1 [Compound 327] |  | 
50 nM | 10 nM | Cc1nccc(C(=O)Nc2ccc(Cc3cccc(Cl)c3)cn2)n1 [Compound 114, N-(5-(3-chlorobenzyl)pyridin-2-yl)-2-methylpyrimidine-4-carboxamide] |  | 

IC50 (human SCD1; [1]) | IC50 (human SCD5; [2]) | Structure (SMILES) | IC50 (human SCD1; SCD1 IC50) | IC50 (human SCD5; SCD5 IC50)
> 45000 nM | 142 nM | N#Cc1cnc(C(=O)Nc2ccc(Cc3cccc(F)c3)cn2)c(F)c1 [Compound 636] |  | 
> 45000 nM | 1560 nM | CN1N=C(C(=O)Nc2ccc(Cc3cc(Cl)cc(C#N)c3)cn2)CCC1=O [Compound 51, N-(5-(3-chloro-5-cyanobenzyl)pyridin-2-yl)-1-methyl-6-oxo-1,4,5,6-tetrahydropyridazine-3-carboxamide] |  | 
5370 nM | 570 nM | Cn1cc(C(=O)Nc2ccc(COc3cccc(Cl)c3)nn2)ccc1=O [Compound 259] |  | 
> 45000 nM | 280 nM | CN1N=C(NC(=O)c2ccc(Cc3ccc(F)c(F)c3)cn2)CCC1=O [Compound 87, 5-(3,4-Difluorobenzyl)-N-(1-methyl-6-oxo-1,4,5,6-tetrahydropyridazin-3-yl)picolinamide] |  | 
> 45000 nM | 300 nM | CN1N=C(NC(=O)c2ccc(Cc3cccc(C(F)F)c3)cn2)CCC1=O [Compound 294] |  | 
6020 nM | 910 nM | Cn1nc(C(=O)Nc2ccc(Cc3ccc(F)c(Cl)c3)nn2)ccc1=O [Compound 180, N-(6-(3-chloro-4-fluorobenzyl)pyridazin-3-yl)-1-methyl-6-oxo-1,6-dihydropyridazine-3-carboxamide] |  | 
2500 nM | 5300 nM | C#Cn1nc(C(=O)Nc2ccc(Cc3cccc(Cl)c3)cn2)ccc1=O [Compound 521] |  | 
3160 nM | 130 nM | Cn1nccc(NC(=O)c2ccc(Cc3cccc(Cl)c3)cn2)c1=O [Compound 363] |  | 
1020 nM | 10 nM | Cn1cc(NC(=O)c2ccc(Cc3cc(F)cc(F)c3)cn2)ccc1=O [Compound 311] |  | 
570 nM | 10 nM | Cn1cccc(C(=O)Nc2ccc(Cc3cccc(Cl)c3)cn2)c1=O [Compound 330] |  | 
> 45000 nM | 10600 nM | Cn1cc(C(=O)Nc2ccc(Cc3cc(F)c(F)c(F)c3)nn2)ccc1=O [Compound 267] |  | 
3860 nM | 180 nM | O=C(Nc1ccc(Cc2cccc(F)c2)cn1)c1ccc(=O)n(C2CC2)c1 [Compound 258] |  | 
210 nM | 20 nM | COc1cc(Cl)cc(Cc2ccc(NC(=O)c3ccc(=O)n(C)n3)nc2)c1 [Compound 282] |  | 
> 45000 nM | 1540 nM | CN1N=C(C(=O)Nc2ccc(Cc3cccc(C(F)(F)F)c3)nn2)CCC1=O [Compound 194, 1-methyl-6-oxo-N-(6-(3-(trifluoromethyl)benzyl)pyridazin-3-yl)-1,4,5,6-tetrahydropyridazine-3-carboxamide] |  | 
> 45000 nM | > 45000 nM | CN1N=C(C(=O)Nc2nc(Cc3ccc4ccccc4n3)cs2)CCC1=O [Compound 422] |  | 
> 45000 nM | 5800 nM | CCn1nc(C(=O)Nc2ccc(Cc3cccc(F)c3)nn2)ccc1=O [Compound 199, 1-ethyl-N-(6-(3-fluorobenzyl)pyridazin-3-yl)-6-oxo-1,6-dihydropyridazine-3-carboxamide] |  | 
> 45000 nM | > 45000 nM | CN1N=C(C(=O)Oc2ccc(NCc3cccc(F)c3)nc2)CCC1=O [Compound 433] |  | 
> 45000 nM | 4520 nM | CN(C)C(=O)c1ccc(NC(=O)c2ccc(Cc3cccc(Cl)c3)cn2)cc1 [Compound 284] |  | 
140 nM | 10 nM | Cn1nc(NC(=O)c2ccc(Cc3cc(F)cc(F)c3)cn2)ccc1=O [Compound 310] |  | 
10 nM | 10 nM | O=C(Nc1ccc(CC2CCCCC2)cn1)c1ccc(CO)nc1 [Compound 375] |  | 

Structure (SMILES) | IC50 (human SCD1; [1]) | IC50 (human SCD5; [2]) | IC50 (human SCD1; SCD1 IC50) | IC50 (human SCD5; SCD5 IC50)
O=C(Nc1ccc(Cc2ccc(F)c(Cl)c2)cn1)c1ccc(CO)nc1 [Compound 112, N-(5-(3-chloro-4-fluorobenzyl)pyridin-2-yl)-6-(hydroxymethyl)nicotinamide] | 10 nM | 10 nM |  | 
CC(c1cccc(F)c1)c1cnc(NC(=O)C2=NN(C)C(=O)CC2)s1 (centres unmarked) [Compound 214, N-(5-(1-(3-fluorophenyl)ethyl)thiazol-2-yl)-1-methyl-6-oxo-1,4,5,6-tetrahydropyridazine-3-carboxamide] | 14500 nM | 1750 nM |  | 
Cn1ccc(C(=O)Nc2ccc(Cc3ccc(F)c(F)c3)cn2)n1 [Compound 371] | 120 nM | 10 nM |  | 
Cn1nc(C(=O)Nc2ccc(Cc3ccc(F)c(F)c3)cn2)ccc1=O [Example 35, N-(5-(3,4-difluorobenzyl)pyridin-2-yl)-1-methyl-6-oxo-1,6-dihydropyridazine-3-carboxamide] | > 45000 nM | 300 nM |  | 
Cn1ccc(C(=O)Nc2ccc(Cc3cc(F)cc(C#N)c3)cn2)n1 [Compound 96, N-(5-(3-cyano-5-fluorobenzyl)pyridin-2-yl)-1-methyl-1H-pyrazole-3-carboxamide] | 1080 nM | 130 nM |  | 
COc1ccc(Cc2ccc(NC(=O)c3ccc(=O)n(C)c3)nc2)cc1F [Example 49, N-(5-(3-fluoro-4-methoxybenzyl)pyridin-2-yl)-1-methyl-6-oxo-1,6-dihydropyridine-3-carboxamide] | > 45000 nM |  |  | 21200 nM
